Laboratory results reported in US7112607B2, “Allosteric adenosine receptor modulators” (King Pharmaceuticals Research & Development, Inc., priority 1997, dated 2006).

Target: T1, human recombinant A1 adenosine receptors (Homo sapiens, UniProt P30542)
T1 construct: expressed in transfected cells; host or cells: Chinese hamster ovary (CHO) cells, CHO:huA1, G-418 selected
T1 sequence (P30542 1-326): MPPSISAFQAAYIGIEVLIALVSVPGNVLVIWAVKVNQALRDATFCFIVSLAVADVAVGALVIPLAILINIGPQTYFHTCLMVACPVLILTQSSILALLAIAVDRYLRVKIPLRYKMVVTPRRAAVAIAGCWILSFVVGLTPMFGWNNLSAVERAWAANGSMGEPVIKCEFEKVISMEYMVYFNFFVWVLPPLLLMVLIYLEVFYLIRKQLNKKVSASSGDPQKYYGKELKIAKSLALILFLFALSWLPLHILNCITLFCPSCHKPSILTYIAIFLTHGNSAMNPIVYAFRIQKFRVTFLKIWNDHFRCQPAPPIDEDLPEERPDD
Experiment: Allosteric enhancement: reduction of cAMP content of CHO:huA1 cells (radioimmunoassay)
Assay type: cell-based
Conditions: forskolin 1 μM, rolipram 20 μM, CPA 0.01 nM, adenosine deaminase, 6 min at 36° C.; for inhibition at 0.01 µM / inhibition at 0.1 µM / inhibition at 1 µM / inhibition at 10 µM: 0.1 h, read-out: Change in cAMP Content from Control (mean + SEM)
Description: Chinese hamster ovary cells expressing human recombinant A1 adenosine receptors (CHO:huA1 cells) at a density of approximately 8000 fmol/mg protein were prepared as previously described (Kollias-Baker et al., (1997), J. Pharmacol. Exp. Ther. 281: 761–768) and aliquots of the cells at low passage numbers were frozen and stored in liquid nitrogen. When compounds were tested, an aliquot of CHO:huA1 cells were rapidly thawed after removal from liquid nitrogen, then grown in Ham's F12 culture medium with 10% fetal bovine serum and 0.5 mg/mL of antibiotic G-418 (Shryock, Ozeck, and Belardinelli (1998), Mol. Pharmacol 53: 886–893). Cells were passaged thrice weekly. Aliquots of cells were placed into 12-well plates with culture medium, serum, and antibiotic for 48 hours, by which time the cells had grown to a confluent monolayer.
Allosteric enhancement was measured as the action of a test compound at different concentrations (0.01, 0.1, 1 and 10 μM) to reduce the cAMP content of CHO:huA1 cells. To initiate an experiment, growth medium was removed from the 12-well plates and cells were washed once with warm Hanks' buffered saline. The wash solution was then removed and replaced with fresh Hanks' solution containing forskolin (1 μM), rolipram (20 μM), N^6-cyclopentyladenosine (CPA, 0.01 nM), adenosine deaminase (2 U/mL), and the test compound. Forskolin was used to stimulate the activity of adenylyl cyclase, rolipram to inhibit cAMP phosphodiesterase, adenosine deaminase to degrade endogenous adenosine, and CPA to cause a small increase of the number of activated adenosine receptors. After 6 min of incubation at 36° C. in the presence of test compound, the incubation solution was removed and hydrochloric acid (final concentration 50 mM) was added to terminate drug action.
The content of cAMP in acidified extracts of cells was determined by radioimmunoassay as previously described (Kollias-Baker et al., (1997), J. Pharmacol. Exp. Ther. 281: 761–768). Because the magnitude of the effects of allosteric enhancers on CHO:huA1 cells changed subtly with passage number and differed slightly among different aliquots of cells, the actions of the test compounds and the action of a reference compound (PD 81,723) were assessed in each experiment. The effect of each test compound on cAMP content is presented in Table 1 as a percentage of the value of cAMP content in the absence of drug (control, 100%). Each value is a mean±standard error of 6 determinations in each of the number of experiments indicated in the “n” column of the table.

Row | Structure (SMILES) | inhibition at 0.01 µM (0.01 μM test compound) | inhibition at 0.1 µM (0.1 μM test compound) | inhibition at 1 µM (1 μM test compound) | inhibition at 10 µM (10 μM test compound) | Change in cAMP Content from Control (mean + SEM) (0.01 μM test compound) | Change in cAMP Content from Control (mean + SEM) (0.1 μM test compound) | Change in cAMP Content from Control (mean + SEM) (1 μM test compound) | Change in cAMP Content from Control (mean + SEM) (10 μM test compound)
1 | Nc1sc2c(c1C(=O)c1ccc(I)c3ccccc13)CCC2 [Example 24, (2-Amino-1,6-dihydro-4H-cyclopenta[b]thiophen-3-yl)-(4-iodonaphthalen-1-yl)-methanone] | 6 ± 3% | 8 ± 3% | 22 ± 4% | 75 ± 1% |  |  |  | 
2 | Nc1sc2c(c1C(=O)c1ccc(Cl)c3ccccc13)CCC2 [Example 25, (2-Amino-5,6-dihydro-4H-cyclopenta[b]thiophen-3-yl)-(4-chloronaph-thalen-1-yl)-methanone] |  |  |  |  | −10 ± 2% | −15 ± 4% | −27 ± 2% | −55 ± 2%
3 | Nc1sc2c(c1C(=O)c1ccc(I)c3ccccc13)CCCC2 [Example 26, (2-Amino-4,5,6,7-tetrahydrobenzo[b]thiophen-3-yl)-(4-iodonaphthalen-1-yl)-methanone] | 3 ± 4% | 4 ± 4% | 24 ± 5% | 67 ± 2% |  |  |  | 
4 | COc1ccc(C(=O)c2c(N)sc3c2CCCC3)c2ccccc12 [Example 27, (2-Amino-4,5,6,7-tetrahydrobenzo[b]thiophen-3-yl)-(4-methoxynaph-thalen-1-yl)-methanone] |  |  |  |  | 5 ± 4% | −5 ± 4% | −3 ± 3% | −17 ± 1%
5 | Nc1sc2c(c1C(=O)c1ccc(Cl)c3ccccc13)CCCC2 [Example 28, (2-Amino-4,5,6,7-tetrahydrobenzo[b]thiophen-3-yl)-(4-chloronaphthalen-1-yl)-methanone] | 11 ± 3% | -3 ± 3% | 25 ± 4% | 44 ± 2% |  |  |  | 
6 | Nc1sc2c(c1C(=O)c1ccc(Br)c3ccccc13)CCCC2 [Example 29, (2-Amino-4,5,6,7-tetrahydrobenzo[b]thiophen-3-yl)-(4-bromonaphthalen-1-yl)-methanone] | 6 ± 3% | 10 ± 2% | 29 ± 2% | 72 ± 1% |  |  |  | 
7 | Nc1sc2c(c1C(=O)c1ccc3ccccc3c1)CCCC2 [Example 30, (2-Amino-4,5,6,7-tetrahydrobenzo[b]thiophen-3-yl)-naphthalen-2-yl-methanone] | 13 ± 4% | 24 ± 3% | 28 ± 2% | 42 ± 3% |  |  |  | 
8 | Nc1sc2c(c1C(=O)c1ccc3ccccc3c1)CCC2 [Example 31, (2-Amino-5,6-dihydro-4H-cyclopenta[b]thiophen-3-yl)-naphthalen-2-yl-methanone] | 19 ± 3% | 14 ± 4% | 15 ± 3% | 51 ± 3% |  |  |  | 
9 | Nc1sc2c(c1C(=O)c1ccc3ccccc3c1)CCN(Cc1ccccc1)C2 [Example 32, (2-Amino-6-benzyl-4,5,6,7-tetrahydrothieno[2,3-c]pyridin-3-yl)-naphthalen-2-yl-methanone] | 11 ± 4% | 12 ± 3% | 18 ± 3% | 60 ± 4% |  |  |  | 
10 | Cc1sc(N)c(C(=O)c2ccc3ccccc3c2)c1C [Example 33, (2-Amino-4,5-dimethylthiophen-3-yl)-naphthalen-2-yl-methanone] | 1 ± 3% | 4 ± 3% | 8 ± 3% | 28 ± 3% |  |  |  | 
11 | Cc1sc(N)c(C(=O)c2cccc(C(F)(F)F)c2)c1C [PD 81,723, reference compound] |  |  |  |  | −1 ± 2% | −7 ± 2% | −13 ± 1% | −50 ± 1%
